Measured values from US20140148336A1, “METHODS OF CONTROLLING FUNGAL PATHOGENS USING POLYENE FUNGICIDES” (priority 2012, published 2014).

Experiments:
[1] = system: SDS Fusarium virguliforme; assay: Drench treatment on soy seedlings for control of SDS in planta, low concentrations (Example 4); format: in vivo; details: for Root Vigor Average Expt. 1 / Root Vigor Average Expt. 2: rating 0 (thin and stunted taproot) to 4 (healthy taproot); for Root Vigor Average Expt. 1: IC 1.6, UIC 3.6; for Root Vigor Average Expt. 2: IC 2.2, UIC 3.9; for Root Rot Average Expt. 2 / Root Rot Average Expt. 1: rating 1 (0% infection) to 5 (>90% infection); for Root Rot Average Expt. 2: IC 3.8, UIC 1; for Root Rot Average Expt. 1: IC 4, UIC 1
Source text: The plants were allowed to grow for 18-21 days. The plants were then gently removed and assessed for root rot symptoms, with a rating of 1=0% infection on taproot and lateral roots, a 2=<25% infection, a 3=25-50% infection, a 4=51-90% infection, and a 5=>90% infection. Root vigor was rated such that a rating of 4=healthy taproot and many lateral roots, a 3=fewer lateral roots and some stunting, a 2=fewer or stringy lateral roots and more stunting, 1=thin tap root and only a few lateral roots, and a 0=thin and stunted taproot with 0-3 lateral roots. […] In these experiments, the inoculum rate was measured by spores/cone at approximately 1×10^7 SDS Fusarium virguliforme spores per cone. Soy plants were germinated first and then transplanted into infested soil. The soybean seeds were germinated in clean sand/soil for 12 days and then seedlings were transplanted into infested soil for 18 days. Natamycin drench was applied 24 hours after transplanting. Natamycin treatment was assessed at 2.5 weeks.

soybean = assay: Seed treatment in uninfested soil, germination and potential phytotoxicity (Example 5); format: in vivo; details: for Root Vigor Average (Uninfested Soil): rating 0-4 (4 = healthy taproot)
Source text: (§1) The plants were allowed to grow for 18-21 days. The plants were then gently removed and assessed for root rot symptoms, with a rating of 1=0% infection on taproot and lateral roots, a 2=<25% infection, a 3=25-50% infection, a 4=51-90% infection, and a 5=>90% infection. Root vigor was rated such that a rating of 4=healthy taproot and many lateral roots, a 3=fewer lateral roots and some stunting, a 2=fewer or stringy lateral roots and more stunting, 1=thin tap root and only a few lateral roots, and a 0=thin and stunted taproot with 0-3 lateral roots.
Using a protocol similar to Example 2, natamycin treated seeds were tested at 50 μg, 25 μg, 10 μg, 5 μg, and 1 μg natamycin per seed. Briefly, seeds were coated with a natamycin slurry and then allowed to air dry. Ten samples of each were planted into infested soil, while five samples of each were planted in uninfested soil to compare germination and potential phytotoxicity.

SDS spores = assay: Drench treatment on soy seedlings for control of SDS in planta (Example 3); format: in vivo, Fusarium virguliforme; details: 50 mL per container, 1×10^7 spores/container, eighteen days
Source text: as §1, with “roots. […] Two experiments were performed. The natamycin solutions were used as a drench treatment with 50 mL of the solution applied to each container. Soy seedlings were transplanted into SDS infested soil, with SDS spores at a rate of 1×10^7 spores/container. The natamycin solutions were applied to the containers the day after transplant. Soy roots were washed after eighteen days.” for “roots.”

F. virguliforme = assay: Agar diffusion assay, zones of inhibition on F. virguliforme lawn plates (Example 1); format: cell-based, Fusarium virguliforme
Description: A PDA plate containing two week old F. virguliforme was flooded with sterile distilled water and scraped with an L-rod to release spores. The spore solution was poured through about four layers of cheese cloth into a 50 mL conical tube. Spores were quantified using a hemacytometer, then diluted to 1×10^5 spores/mL. (1×10^4 spores were spread on plates.) To make F. virguliforme lawn plates, 100 μL of the spore suspension was spread onto commercial PDA plates. Wells were made for the F. virguliforme lawn plates using straw-plungers.
Natamycin stock was diluted in sterile distilled water to concentrations of 500 ppm, 250 ppm, 100 ppm, 50 ppm, 25 ppm, 12.5 ppm, 6.25 ppm, 3.13 ppm, 1.56 ppm, 0.78 ppm, and 0.4 ppm. 100 μL of each dilution was placed in a well on the lawn plates. Control plates consisted of a 1000 ppm plate, a water control, and a 70% ethanol (EtOH) control.
[…] […] Dilutions lower than 12.5 ppm had no effect.

C[C@@H]1C/C=C/C=C/C=C/C=C/[C@H](O[C@@H]2O[C@H](C)[C@@H](O)[C@H](N)[C@@H]2O)C[C@@H]2O[C@](O)(C[C@@H](O)C[C@H]3O[C@@H]3/C=C/C(=O)O1)C[C@H](O)[C@H]2C(=O)O [Natamycin, natamycin]
Root Vigor Average Expt. 1 ([1]; drench 1 ppm): 1.7 | Root Vigor Average Expt. 2 ([1]; drench 1 ppm): 2.5 | Root Rot Average Expt. 2 ([1]; drench 1 ppm): 3.2 | Root Rot Average Expt. 1 ([1]; drench 1 ppm): 4.5 | Root Vigor Average Expt. 1 ([1]; drench 5 ppm): 2 | Root Vigor Average Expt. 2 ([1]; drench 5 ppm): 2.7 | Root Rot Average Expt. 2 ([1]; drench 5 ppm): 3.4 | Root Rot Average Expt. 1 ([1]; drench 5 ppm): 3.9 | Root Vigor Average Expt. 1 ([1]; drench 10 ppm): 2.1 | Root Vigor Average Expt. 2 ([1]; drench 10 ppm): 3 | Root Rot Average Expt. 2 ([1]; drench 10 ppm): 3.1 | Root Rot Average Expt. 1 ([1]; drench 10 ppm): 3.5 | Root Vigor Average Expt. 1 ([1]; drench 25 ppm): 2.8 | Root Vigor Average Expt. 2 ([1]; drench 25 ppm): 3.1 | Root Rot Average Expt. 2 ([1]; drench 25 ppm): 2.6 | Root Rot Average Expt. 1 ([1]; drench 25 ppm): 2.9 | Root Vigor Average Expt. 1 ([1]; drench 50 ppm): 2.3 | Root Vigor Average Expt. 2 ([1]; drench 50 ppm): 2.9 | Root Rot Average Expt. 2 ([1]; drench 50 ppm): 2.6 | Root Rot Average Expt. 1 ([1]; drench 50 ppm): 3.1 | germination of plants (soybean; all plants, seed treatment at all natamycin concentrations (50, 25, 10, 5, 1 μg per seed), un-infested (clean) soil): germinated | Root Vigor Average (Uninfested Soil) (soybean; seed treatment 1 μg/seed): 3.5 | Root Vigor Average (Uninfested Soil) (soybean; seed treatment 5 μg/seed): 3.9 | Root Vigor Average (Uninfested Soil) (soybean; seed treatment 10 μg/seed): 3.6 | Root Vigor Average (Uninfested Soil) (soybean; seed treatment 25 μg/seed): 3.3 | Root Vigor Average (Uninfested Soil) (soybean; seed treatment 50 μg/seed): 3.8 | phytotoxicity to seeds (soybean; seed treatment at all concentrations (50, 25, 10, 5, 1 μg per seed), un-infested soil): not phytotoxic | root rot ratings vs infested control (IC) plants (SDS spores; drench 10 ppm): significantly lower | root vigor ratings vs infested control (IC) plants (SDS spores; drench 10 ppm): higher | root rot ratings vs infested control (IC) plants (SDS spores; drench 25 ppm): significantly lower | root vigor ratings vs infested control (IC) plants (SDS spores; drench 25 ppm): higher | root rot ratings vs infested control (IC) plants (SDS spores; drench 50 ppm): significantly lower | root vigor ratings vs infested control (IC) plants (SDS spores; drench 50 ppm): higher | control of F. virguliforme (zones of inhibition), drop off (F. virguliforme; 12.5 ppm, 100 μL per well, after three days): noticeably | control of F. virguliforme (zones of inhibition) (F. virguliforme; 12.5 ppm, after seven days): very limited activity | Fusarium growth around plates (F. virguliforme; 25 ppm and 12.5 ppm plates, one day later (after the three-day reading)): more Fusarium grew | control of F. virguliforme (zones of inhibition) (F. virguliforme; 50 ppm, 100 μL per well, after three days): started to drop off slightly | control of F. virguliforme (zones of inhibition) (F. virguliforme; 50 ppm, after seven days): started falling off | control of F. virguliforme (zones of inhibition) (F. virguliforme; 100 ppm, 100 μL per well, after three days): Substantial control | control of F. virguliforme (zones of inhibition) (F. virguliforme; 250 ppm, 100 μL per well, after three days): Substantial control | control of F. virguliforme (zones of inhibition) (F. virguliforme; 500 ppm, 100 μL per well, after three days): Substantial control | control of F. virguliforme (zones of inhibition) (F. virguliforme; 1000 ppm plate, after three days): almost completely controlled | effect on F. virguliforme (zones of inhibition) (F. virguliforme; dilutions lower than 12.5 ppm): no effect
